Where “and” joins values, the source holds several entries; their conditions need not be identical. Identical values can stand only once. Counter-ions that a name gives are not always drawn. Like-named read-outs stand apart in the source and are kept apart here.
How the values were obtained:
[1] = Hygroscopicity: change in weight after storage at different RH (%) for 24 hrs; type: physicochemical; conditions: for Deliquescence (in words): RH of 64%
Experimental: To evaluate the hygroscopicity of the powder and α-form crystals of deoxyspergualin hydrochloride, the change of the weight of each sample was measured after storage in different RH (%) for 24 hrs. To evaluate the hygroscopicity of the powder and β-form crystals of deoxyspergualin hydrochloride, the change in the weight of each sample was measured after storage in different RH (%) for 24 hrs. The hygroscopicity each of the Powder A and α-form crystals and β-form crystals of the above-identified application was evaluated by measuring the change in weight after storage in various RH(%) for 24 hrs.

[2] = Heat stability: undecomposed substance by HPLC after storage at 50° C. for 6 days; type: physicochemical
Experimental: To evaluate the heat stability of α-form crystals of deoxyspergualin hydrochloride in comparison with that of the powder, samples were stored at 50° C. for 6 days and were analyzed by high-pressure liquid chromatography (HPLC), and the amount of undecomposed substance was measured.
To evaluate the heat stability of β-form crystals of deoxyspergualin hydrochloride in comparison with that of the powder, samples were stored at 50° C. for 6 days, and analyzed by HPLC to measure the amount of undecomposed substance.
To evaluate the heat stability of the Powder A in comparison with those of α-form crystals and β-form crystals of the above-identified application, samples were stored at 50° C. for 6 days and then analyzed by HPLC to measure the amount of undecomposed substance.

N=C(N)NCCCCCCC(=O)NC(O)C(=O)NCCCCNCCCN (centres unmarked) [Powder, N-[4-(3-aminopropyl)aminobutyl]-2-(7-guanidinoheptanamide)-2-hydroxyethanamide trihydrochloride, reference compound]
Increase in weight ([1]; RH 14%): 1.5% | Increase in weight ([1]; RH 31%, trihydrochloride): 5.9% | Increase in weight ([1]; RH 43%, trihydrochloride): 9.1% | Increase in weight ([1]; RH 52%, trihydrochloride): 12.6% | Increase in weight ([1]; RH 64%, trihydrochloride): 17.9% | Increase in weight ([1]; RH 76%, trihydrochloride): 28.3% | Deliquescence (in words) ([1]; trihydrochloride): deliquesced | Amount of undecomposed substance ([2]; trihydrochloride, 8640 min): 89.8% and 83%

N=C(N)NCCCCCCC(=O)NC(O)C(=O)NCCCCNCCCN (stereo not drawn) [α-form crystals, N-[4-(3-aminopropyl)aminobutyl]-2-(7-guanidinoheptanamide)-2-hydroxyethanamide trihydrochloride]
Increase in weight ([1]; RH 31%, trihydrochloride): -0.6% and -0.8% | Increase in weight ([1]; RH 43%, trihydrochloride): -0.4% | Increase in weight ([1]; RH 52%, trihydrochloride): -0.1% and -0.2% | Increase in weight ([1]; RH 64%, trihydrochloride): 15.2% and 17.8% | Water absorption (in words) ([1]; RH of 52% or below): did not absorb water | Amount of undecomposed substance ([2]; trihydrochloride, 8640 min): 100.1% and 100.0%

Cl.Cl.Cl.N=C(N)NCCCCCCC(=O)NC(O)C(=O)NCCCCNCCCN (centres unmarked) [Powder A, N-[4-(3-aminopropyl)aminobutyl]-2-(7-guanidinoheptanamido)-2-hydroxyethanamide trihydrochloride, reference compound]
Increase in weight ([1]; RH 31%): 5.0% | Increase in weight ([1]; RH 43%): 6.3% | Increase in weight ([1]; RH 52%): 7.4% | Increase in weight ([1]; RH 64%): 13.2% | Amount of undecomposed substance [2]: 59.7%

N=C(N)NCCCCCCC(=O)NC(O)C(=O)NCCCCNCCCN (stereo not drawn) [β-form crystals, N-[4-(3-aminopropyl)aminobutyl]-2-(7-guanidinoheptanamide)-2-hydroxyethanamide trihydrochloride]
Increase in weight ([1]; RH 31%, trihydrochloride): 1.7% and 1.2% | Increase in weight ([1]; RH 43%, trihydrochloride): 2.6% and 2.1% | Increase in weight ([1]; RH 52%, trihydrochloride): 3.8% and 3.0% | Increase in weight ([1]; RH 64%, trihydrochloride): 7.3% and 6.1% | Increase in weight ([1]; RH 76%, trihydrochloride): 14.0% | Deliquescence (in words) ([1]; trihydrochloride): did not deliquesce | Amount of undecomposed substance ([2]; trihydrochloride, 8640 min): 100.6% and 100.2%

From patent publication US5196453A, “Crystalline deoxyspergualin, process for its preparation and suppository containing the same” (priority 1989, dated 1993)
